Experimental data as given in publication PMC8950706, “Influence of Substitutions in the Binding Motif of Proline-Rich Antimicrobial Peptide ARV-1502 on 70S Ribosome Binding and Antimicrobial Activity” (International Journal of Molecular Sciences, 2022).
Square brackets hold non-standard residues; d marks the D form. Peptide text beside a SMILES is read from it. Ac6c = NC1(C(=O)O)CCCCC1

Key:
[1] = system: E. coli 70S ribosome; assay: Competitive FP binding screening assay with Cf-ARV-1502 (relative FP); set-up: species or system E. coli BW25113; details: for Ribosome Binding (%): competitive ribosome binding against Cf-ARV-1502 (relative FP; values match 1.2 µmol/L peptide), low value = strong competition
Method: E. coli 70S ribosomes were prepared using a previously described protocol that was slightly modified. Briefly, E. coli BW25113 was cultivated in Luria-Bertani (LB) medium and cells were harvested after reaching an optical density of ~4 at 600 nm by centrifugation (5000× g, 15 min, 4 °C, Rotor JLA 8.100, Avanti J-20 XP, Beckmann Coulter, Krefeld, Germany). The cell pellets were frozen and stored at −80 °C. Cells were resuspended in ribosome buffer (2 mL/g cells; 20 mmol/L HEPES-KOH, 6 mmol/L MgCl2, 30 mmol/L NH4Cl, 4 mmol/L 2-mercaptoethanol, pH 7.6). Lysozyme (0.25 g/L cell suspension) was added, and the mixture was incubated on ice for 30 min. Cells were disrupted using the bead mill homogenizer FastPrep-24™ 5G (40 s, 4 m/s, 6 cycles, MP Biomedicals Germany GmbH, Eschwege, Germany) and zirconia/silica beads (0.1 mm diameter). The lysate was centrifuged (1500× g, 5 min, 4 °C, Rotor S4180, Allegra 21R, Beckmann Coulter) and the supernatant was incubated with DNase (5 U/mL) on ice for 60 min. The cell debris was removed by two centrifugation steps (16,000× g, 30 min, 4 °C followed by 32,000× g, 60 min, 4 °C, Rotor JA 30.50 Ti, Avanti J-30I, Beckmann Coulter). The ribosome was pelleted by ultracentrifugation (165,000× g, 17 h, 4 °C, Rotor 70 Ti, Optima LE-80K, Beckmann Coulter), resuspended in ribosome buffer (0.1 mL/g pellet), and stored at −80 °C. The ribosome concentration was determined by recording the absorbance of RNA at 260 nm (NanoPhotometer NP80, Implen GmbH, München, Germany) assuming that 1 AU corresponds to a ribosome concentration of 28 nmol/L. The molecular weight of the E. coli 70S ribosome was assumed to be 2.3 MDa.
E. coli 70S ribosomes and Cf-ARV-1502 were incubated with four different concentrations of unlabeled peptides chosen based on the IC50 curves of reference peptide ARV-1502. Each peptide was diluted in ribosome buffer to obtain a concentration of 4.8 µmol/L and transferred to a 384-well-plate. Peptides were then twofold serially diluted in four steps from 4.8 to 0.6 µmol/L (20 µL). The ribosome extract was diluted in ribosome buffer to reach a concentration of 2 µmol/L and 10 µL were added to each well to obtain a final ribosome concentration of 0.5 µmol/L. Plates were centrifuged (2 min, 500× g, Rotor S2096, Allegra^TM 21R, Beckmann Coulter) and incubated at 28 °C for 90 min. Cf-labeled ARV-1502 was added (10 µL; final concentration of 20 nmol/L) and the plates were again centrifuged and incubated (28 °C, 90 min). After incubation, fluorescence polarization was recorded on a […]^TM microplate reader (λex = 485 nm, λem = 535 nm).
On each plate 12 minimum (30 µL ribosome buffer and 10 µL Cf-ARV-1502) and 12 maximum (20 µL ribosome buffer, 10 µL ribosome solution and 10 µL Cf-ARV-1502) control samples were added. Fluorescence polarization of screening samples was normalized to the fluorescence polarization of these control samples. All screening samples were measured in triplicates and the whole experiment was repeated once on another day.

[2] = system: E. coli BW25113 ∆sbmA ∆mdtM; format: cell-based, Escherichia coli; details: for Effect of the additional mdtM knockout on antibacterial activity: ∆sbmA ∆mdtM compared with ∆sbmA; for Minimal Inhibitory Concentration, 25% MHB2, ∆sbmA ∆mdtM: 25% MHB2, 37 °C; for Minimal Inhibitory Concentration, 25% MHB2, ∆sbmA ∆mdtM / Minimal Inhibitory Concentration, 33% TSB, ∆sbmA ∆mdtM: 20 h, at least duplicates on two days, * once on two days, ** duplicate on one day; for Minimal Inhibitory Concentration, 33% TSB, ∆sbmA ∆mdtM: 37 °C
Method: (§1) MIC values were determined using a liquid broth micro dilution assay in sterile 96-well plates (polystyrene F-bottom, Greiner Bio-One GmbH) and a total volume of 100 μL per well. Aqueous peptide solutions (10 g/L) were serially twofold diluted in 25% Mueller-Hinton broth 2 (25% MBH2) or 33% tryptic soy broth (33% TSB) starting at a peptide concentration of 128 mg/L (50 μL/well). Overnight cultures of bacteria grown in 25% MHB2 (or 33% TSB) were diluted 30-fold in 25% MHB2 (or 33% TSB). After an incubation period of 4 h (37 °C, 200 rpm), cells were diluted to 1.5 × 10^7 cfu/mL, based on a McFarland test, and 50 μL were added to each well (final concentration of 7.5 × 10^6 […]). The plates were incubated (37 °C, 20 h) and the optical density was recorded at 595 nm using a microplate reader ([…]^TM, Beckmann Coulter). The MIC was defined as the lowest peptide concentration preventing visible bacterial growth.

[3] = system: E. coli BW25113; assay: Checkerboard assay (FICI); format: cell-based, Escherichia coli; details: E. coli BW25113, 25% MHB2; synergy FICI ≤ 0.5, antagonism FICI ≥ 4; Table S6
Method: Synergy was tested in sterile 96-well plates (polystyrene F-bottom, Greiner Bio-One GmbH) using a total volume of 100 μL per well. […] Plates were incubated (37 °C, 20 h) and the optical density recorded at 595 nm using a microplate reader (Victor3, Perkin Elmer Inc., Waltham, MA, USA). The fractional inhibitory concentration index (FICI) was calculated by the equation FICI = […] = (A/MICA) + (B/MICB), where MICA/B are the MICs of an antimicrobial peptide (A) and one of the three tested antibiotics (B) alone and A and B are the MICs of combined antimicrobials. Synergy was defined as FICI ≤ 0.5, antagonism as FICI ≥ 4 and additive or indifference as FICI between 0.5 and 4.

[4] = system: E. coli BW25113 ∆sbmA; format: cell-based, Escherichia coli; details: 20 h, at least duplicates on two days, * once on two days, ** duplicate on one day; for Minimal Inhibitory Concentration, 25% MHB2, ∆sbmA: 25% MHB2, 37 °C; for Minimal Inhibitory Concentration, 33% TSB, ∆sbmA: 37 °C
Method: as §1

[5] = control without unlabeled peptide = 100%, 0.5 µmol/L ribosome, 20 nmol/L Cf-ARV-1502, triplicates, repeated once on another day

Structure (SMILES) | Inhibition of Cf-ARV-1502 binding to the 70S ribosome (in words) ([1]; Figure 3: peptide concentration 1.2 µmol/L) | Ribosome Binding (%) [1] [%] | Effect of the additional mdtM knockout on antibacterial activity [2] | Checkerboard assay (FICI), peptide combined with chloramphenicol [3] | Relative FP at 1.2 µmol/L unlabeled peptide [1, 5] [%] | Relative FP at 2.4 µmol/L unlabeled peptide [1, 5] [%] | Minimal Inhibitory Concentration, 25% MHB2, ∆sbmA ∆mdtM [2] [µg/mL] | Minimal Inhibitory Concentration, 33% TSB, ∆sbmA ∆mdtM [2] [µg/mL] | Minimal Inhibitory Concentration, 25% MHB2, ∆sbmA [4] [µg/mL] | Minimal Inhibitory Concentration, 33% TSB, ∆sbmA [4] [µg/mL]
CC(C)C[C@H](NC(=O)[C@H](Cc1ccc(O)cc1)NC(=O)[C@@H]1CCCN1C(=O)[C@H](CCCNC(=N)N)NC(=O)[C@@H]1CCCN1C(=O)[C@H](CCCCN)NC(=O)[C@H](CCCCN)NC(=O)[C@@H]1CCCN1C(=O)[C@H](CCCNC(=N)N)NC(=O)C1(N)CCCCC1)C(=O)N1CCC[C@H]1C(=O)N[C@@H](CCCNC(=N)N)C(=O)N1CCC[C@H]1C(=O)N[C@@H](CCCNC(=N)N)C(=O)N1CCC[C@H]1C(=O)N1CCC[C@H]1C(=O)N[C@@H](CCCNC(=N)N)C(=O)N1CCC[C@H]1C(=O)N[C@H](C(=O)N[C@@H](CCCNC(=N)N)C(N)=O)C(C)C [Peptide 2] (H-[Ac6c]RPKKPRPYLPRPRPPRPVR-NH2; N-terminus and C-terminus assumed) | did not reduce the competition with Cf-ARV-1502 | 40.3 ± 2.2 | no effect | Slightly higher FICIs | – | – | – | – | – | –
CC(C)C[C@H](NC(=O)[C@H](Cc1ccc(O)cc1)NC(=O)[C@@H]1CCCN1C(=O)[C@H](CCCNC(=N)N)NC(=O)[C@@H]1CCCN1C(=O)[C@H](CCCCN)NC(=O)[C@H](CC(=O)O)NC(=O)[C@@H]1CCCN1C(=O)[C@H](CCCNC(=N)N)NC(=O)C1(N)CCCCC1)C(=O)N1CCC[C@H]1C(=O)N[C@@H](CCCNC(=N)N)C(=O)N1CCC[C@H]1C(=O)N[C@@H](CCCNC(=N)N)C(=O)N1CCC[C@H]1C(=O)N1CCC[C@H]1C(=O)N[C@@H](CCCNC(=N)N)C(=O)N1CCC[C@H]1C(=O)N[C@H](C(=O)N[C@@H](CCCNC(=N)N)C(N)=O)C(C)C [ARV-1502] (H-[Ac6c]RPDKPRPYLPRPRPPRPVR-NH2) | – | 40.9 ± 3.9 | further decreased | did not indicate synergistic or antagonistic effects | 40.9 ± 3.9 | 32.1 ± 1.3 | 64 | 128 | 16 to 32 | 64
CC[C@H](C)[C@H](NC(=O)[C@@H](CCCNC(=N)N)NC(=O)[C@H](CCCNC(=N)N)NC(=O)[C@@H]1CCCN1C(=O)[C@@H]1CCCN1C(=O)[C@H](CCCNC(=N)N)NC(=O)[C@@H]1CCCN1C(=O)[C@H](CCCNC(=N)N)NC(=O)[C@@H]1CCCN1C(=O)[C@H](CC(C)C)NC(=O)[C@H](Cc1ccc(O)cc1)NC(=O)[C@@H]1CCCN1C(=O)[C@@H]1CCCN1C(=O)[C@H](CCCCN)NC(=O)[C@H](CC(=O)O)NC(=O)[C@@H](N)C(C)C)C(=O)N[C@@H](Cc1ccc(O)cc1)C(=O)N[C@@H](CC(N)=O)C(=O)N[C@H](CCCNC(=N)N)C(N)=O [Onc112, reference compound] (H-VDKPPYLPRPRPPR[dR]IYN[dR]-NH2; N-terminus and C-terminus assumed) | – | 32.1 ± 1.0 | weakened the activity | – | – | – | 64 | 128 | 16 to 32 | 64
